Assay results published in ChEMBL document CHEMBL1938230, “6-Position optimization of tricyclic 4-quinolone-based inhibitors of glycogen synthase kinase-3β: discovery of nitrile derivatives with picomolar potency” (Bioorg Med Chem Lett, 2012).

Key:
[1] = biological target: Cyclin-dependent kinase 9 (Homo sapiens) (UniProt P50750); assay: Inhibition of human CDK9 in HL-60 cells lysate assessed as reduction of labeling of acyl-phosphate ATP probe at 100 nM; type: cell-free
[2] = biological target: Cyclin-dependent kinase 7 (Homo sapiens) (UniProt P50613); assay: Inhibition of human CDK7 in HL-60 cells lysate assessed as reduction of labeling of acyl-phosphate ATP probe at 100 nM; type: cell-free
[3] = biological target: Tyrosine-protein kinase HCK (Homo sapiens) (UniProt P08631); assay: Inhibition of human HCK in HL-60 cells lysate assessed as reduction of labeling of acyl-phosphate ATP probe at 100 nM; type: cell-free
[4] = biological target: Cyclin-dependent kinase 6 (Homo sapiens) (UniProt Q00534); assay: Inhibition of human CDK6 in HL-60 cells lysate assessed as reduction of labeling of acyl-phosphate ATP probe at 100 nM; type: cell-free
[5] = biological target: T1, Serine/threonine-protein kinase tousled-like 1 (Homo sapiens) (UniProt Q9UKI8); assay: Inhibition of human TLK1 in HL-60 cells lysate assessed as reduction of labeling of acyl-phosphate ATP probe at 100 nM; type: cell-free
T1 sequence (whole entry): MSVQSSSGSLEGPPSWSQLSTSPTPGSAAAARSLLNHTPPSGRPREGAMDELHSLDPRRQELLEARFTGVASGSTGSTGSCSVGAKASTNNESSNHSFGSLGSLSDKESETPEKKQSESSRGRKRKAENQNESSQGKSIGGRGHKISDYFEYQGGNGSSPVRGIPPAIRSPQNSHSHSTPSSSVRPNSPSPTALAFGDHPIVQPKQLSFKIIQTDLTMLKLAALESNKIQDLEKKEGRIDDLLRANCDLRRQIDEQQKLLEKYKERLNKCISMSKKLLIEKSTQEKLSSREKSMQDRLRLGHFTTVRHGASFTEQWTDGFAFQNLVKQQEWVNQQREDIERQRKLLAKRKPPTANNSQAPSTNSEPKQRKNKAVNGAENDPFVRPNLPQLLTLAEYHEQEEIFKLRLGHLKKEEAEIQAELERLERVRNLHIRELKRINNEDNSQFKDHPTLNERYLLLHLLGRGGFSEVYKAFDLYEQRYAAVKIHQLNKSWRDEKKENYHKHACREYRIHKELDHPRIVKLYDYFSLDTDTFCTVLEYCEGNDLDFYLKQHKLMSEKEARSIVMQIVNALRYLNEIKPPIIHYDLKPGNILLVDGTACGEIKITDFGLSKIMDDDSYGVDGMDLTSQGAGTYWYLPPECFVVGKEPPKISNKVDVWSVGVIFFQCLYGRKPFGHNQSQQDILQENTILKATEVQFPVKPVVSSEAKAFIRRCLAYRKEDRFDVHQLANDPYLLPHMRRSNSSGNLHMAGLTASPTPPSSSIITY

[6] = biological target: Mitogen-activated protein kinase kinase kinase 11 (Homo sapiens) (UniProt Q16584); assay: Inhibition of human MLK3 in HL-60 cells lysate assessed as reduction of labeling of acyl-phosphate ATP probe at 100 nM; type: cell-free
HL-60 = assay: Inhibition of human ACK in HL-60 cells lysate assessed as reduction of labeling of acyl-phosphate ATP probe at 100 nM
[7] = biological target: Mitogen-activated protein kinase kinase kinase 20 (Homo sapiens) (UniProt Q9NYL2); assay: Inhibition of human ZAK in HL-60 cells lysate assessed as reduction of labeling of acyl-phosphate ATP probe at 100 nM; type: cell-free
[8] = biological target: T2, Serine/threonine-protein kinase Nek1 (Homo sapiens) (UniProt Q96PY6); assay: Inhibition of human NEK1 in HL-60 cells lysate assessed as reduction of labeling of acyl-phosphate ATP probe at 100 nM; type: cell-free
T2 sequence (whole entry): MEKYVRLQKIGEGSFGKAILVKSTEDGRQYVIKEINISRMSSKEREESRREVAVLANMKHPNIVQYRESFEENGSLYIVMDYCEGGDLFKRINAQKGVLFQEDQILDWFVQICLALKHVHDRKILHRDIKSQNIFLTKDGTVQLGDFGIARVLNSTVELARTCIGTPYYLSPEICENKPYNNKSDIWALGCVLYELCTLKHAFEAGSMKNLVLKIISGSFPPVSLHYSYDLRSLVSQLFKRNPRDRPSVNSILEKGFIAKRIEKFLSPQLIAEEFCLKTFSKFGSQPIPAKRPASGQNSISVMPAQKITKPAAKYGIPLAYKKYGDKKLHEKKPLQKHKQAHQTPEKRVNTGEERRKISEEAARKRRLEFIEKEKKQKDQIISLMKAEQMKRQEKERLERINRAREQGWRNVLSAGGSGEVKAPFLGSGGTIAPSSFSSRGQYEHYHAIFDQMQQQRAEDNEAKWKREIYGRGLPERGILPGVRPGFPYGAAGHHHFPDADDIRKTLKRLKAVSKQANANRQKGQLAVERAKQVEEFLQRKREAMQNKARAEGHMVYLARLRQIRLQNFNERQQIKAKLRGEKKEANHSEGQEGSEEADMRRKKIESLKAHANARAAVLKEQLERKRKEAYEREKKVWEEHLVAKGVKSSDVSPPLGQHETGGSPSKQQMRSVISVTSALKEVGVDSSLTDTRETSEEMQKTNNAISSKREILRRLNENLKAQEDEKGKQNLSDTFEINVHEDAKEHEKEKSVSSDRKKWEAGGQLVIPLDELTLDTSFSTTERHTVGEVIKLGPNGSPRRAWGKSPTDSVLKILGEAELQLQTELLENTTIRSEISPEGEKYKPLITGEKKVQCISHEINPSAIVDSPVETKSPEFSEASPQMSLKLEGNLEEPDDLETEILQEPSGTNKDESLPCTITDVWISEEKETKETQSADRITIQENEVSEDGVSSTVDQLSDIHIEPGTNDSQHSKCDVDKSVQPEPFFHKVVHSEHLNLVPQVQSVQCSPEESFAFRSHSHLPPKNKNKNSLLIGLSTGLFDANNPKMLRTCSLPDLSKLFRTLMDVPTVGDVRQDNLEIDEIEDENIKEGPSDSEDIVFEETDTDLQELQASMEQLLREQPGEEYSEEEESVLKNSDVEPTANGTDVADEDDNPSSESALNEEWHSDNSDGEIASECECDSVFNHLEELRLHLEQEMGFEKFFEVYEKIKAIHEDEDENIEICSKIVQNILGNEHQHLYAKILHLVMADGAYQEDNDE

Sequence of Cyclin-dependent kinase 6 (Homo sapiens) (Q00534 whole entry): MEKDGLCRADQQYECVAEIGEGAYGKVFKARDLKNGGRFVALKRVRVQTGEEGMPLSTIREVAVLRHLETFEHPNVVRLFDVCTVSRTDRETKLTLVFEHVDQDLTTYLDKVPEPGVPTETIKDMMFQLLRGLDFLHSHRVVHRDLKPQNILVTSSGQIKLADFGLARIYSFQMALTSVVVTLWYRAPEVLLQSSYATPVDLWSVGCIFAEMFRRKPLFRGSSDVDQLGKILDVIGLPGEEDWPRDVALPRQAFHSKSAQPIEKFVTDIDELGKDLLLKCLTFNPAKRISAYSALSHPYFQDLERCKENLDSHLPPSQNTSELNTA
Sequence of Mitogen-activated protein kinase kinase kinase 20 (Homo sapiens) (Q9NYL2 2-800 limits assumed): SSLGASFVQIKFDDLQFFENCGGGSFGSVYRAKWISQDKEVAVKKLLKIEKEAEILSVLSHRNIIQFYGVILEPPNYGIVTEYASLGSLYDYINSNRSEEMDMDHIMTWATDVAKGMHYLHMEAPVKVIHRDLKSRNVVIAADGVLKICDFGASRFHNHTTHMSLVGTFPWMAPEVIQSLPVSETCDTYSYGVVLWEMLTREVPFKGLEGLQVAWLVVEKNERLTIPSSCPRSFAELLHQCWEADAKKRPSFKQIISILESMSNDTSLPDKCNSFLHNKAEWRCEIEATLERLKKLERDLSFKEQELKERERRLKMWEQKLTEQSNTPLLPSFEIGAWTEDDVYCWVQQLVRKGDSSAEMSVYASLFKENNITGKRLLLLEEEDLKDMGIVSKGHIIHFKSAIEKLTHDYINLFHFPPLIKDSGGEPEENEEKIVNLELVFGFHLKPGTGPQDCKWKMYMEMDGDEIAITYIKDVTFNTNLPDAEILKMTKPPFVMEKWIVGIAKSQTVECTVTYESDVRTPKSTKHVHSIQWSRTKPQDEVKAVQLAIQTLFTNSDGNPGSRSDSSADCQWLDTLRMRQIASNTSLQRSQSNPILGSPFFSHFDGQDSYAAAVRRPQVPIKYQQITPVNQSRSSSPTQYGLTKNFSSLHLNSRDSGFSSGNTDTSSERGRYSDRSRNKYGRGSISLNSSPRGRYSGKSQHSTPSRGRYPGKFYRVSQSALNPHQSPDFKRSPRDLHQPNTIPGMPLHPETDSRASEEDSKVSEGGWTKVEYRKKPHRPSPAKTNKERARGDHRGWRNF
Sequence of Cyclin-dependent kinase 9 (Homo sapiens) (P50750 whole entry): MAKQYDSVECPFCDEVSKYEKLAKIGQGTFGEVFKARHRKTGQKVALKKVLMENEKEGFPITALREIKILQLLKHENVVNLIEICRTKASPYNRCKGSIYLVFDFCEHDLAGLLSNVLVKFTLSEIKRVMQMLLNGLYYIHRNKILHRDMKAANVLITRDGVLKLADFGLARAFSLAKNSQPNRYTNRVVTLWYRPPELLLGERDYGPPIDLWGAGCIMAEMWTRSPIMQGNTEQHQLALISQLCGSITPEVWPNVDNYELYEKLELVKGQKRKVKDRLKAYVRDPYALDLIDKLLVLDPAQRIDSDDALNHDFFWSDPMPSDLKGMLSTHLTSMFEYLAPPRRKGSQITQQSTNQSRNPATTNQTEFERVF
Sequence of Cyclin-dependent kinase 7 (Homo sapiens) (P50613 whole entry): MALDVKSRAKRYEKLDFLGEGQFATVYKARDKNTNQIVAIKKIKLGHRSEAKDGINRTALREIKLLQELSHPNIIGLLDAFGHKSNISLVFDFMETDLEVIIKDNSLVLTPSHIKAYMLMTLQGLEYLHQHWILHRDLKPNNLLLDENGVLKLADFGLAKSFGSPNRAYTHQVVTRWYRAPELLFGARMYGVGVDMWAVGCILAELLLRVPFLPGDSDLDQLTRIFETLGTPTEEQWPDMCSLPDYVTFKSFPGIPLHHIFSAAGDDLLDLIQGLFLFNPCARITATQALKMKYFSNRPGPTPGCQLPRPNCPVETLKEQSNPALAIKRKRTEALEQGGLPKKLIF
Sequence of Tyrosine-protein kinase HCK (Homo sapiens) (P08631 2-526 limits assumed): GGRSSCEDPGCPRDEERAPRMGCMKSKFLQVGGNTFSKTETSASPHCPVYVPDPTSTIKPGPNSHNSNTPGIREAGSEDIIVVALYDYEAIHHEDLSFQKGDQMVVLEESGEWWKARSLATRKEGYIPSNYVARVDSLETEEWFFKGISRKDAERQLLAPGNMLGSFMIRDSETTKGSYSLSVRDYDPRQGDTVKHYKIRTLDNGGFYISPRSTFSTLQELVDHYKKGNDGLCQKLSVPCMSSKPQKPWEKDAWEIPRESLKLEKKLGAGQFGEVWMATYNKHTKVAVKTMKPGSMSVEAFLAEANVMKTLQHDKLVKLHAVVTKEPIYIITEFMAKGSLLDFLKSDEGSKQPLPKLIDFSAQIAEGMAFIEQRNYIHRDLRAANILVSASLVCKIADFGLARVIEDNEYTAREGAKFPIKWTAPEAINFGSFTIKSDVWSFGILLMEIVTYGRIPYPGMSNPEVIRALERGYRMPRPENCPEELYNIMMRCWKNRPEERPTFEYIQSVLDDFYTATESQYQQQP
Sequence of Mitogen-activated protein kinase kinase kinase 11 (Homo sapiens) (Q16584 whole entry, looked up): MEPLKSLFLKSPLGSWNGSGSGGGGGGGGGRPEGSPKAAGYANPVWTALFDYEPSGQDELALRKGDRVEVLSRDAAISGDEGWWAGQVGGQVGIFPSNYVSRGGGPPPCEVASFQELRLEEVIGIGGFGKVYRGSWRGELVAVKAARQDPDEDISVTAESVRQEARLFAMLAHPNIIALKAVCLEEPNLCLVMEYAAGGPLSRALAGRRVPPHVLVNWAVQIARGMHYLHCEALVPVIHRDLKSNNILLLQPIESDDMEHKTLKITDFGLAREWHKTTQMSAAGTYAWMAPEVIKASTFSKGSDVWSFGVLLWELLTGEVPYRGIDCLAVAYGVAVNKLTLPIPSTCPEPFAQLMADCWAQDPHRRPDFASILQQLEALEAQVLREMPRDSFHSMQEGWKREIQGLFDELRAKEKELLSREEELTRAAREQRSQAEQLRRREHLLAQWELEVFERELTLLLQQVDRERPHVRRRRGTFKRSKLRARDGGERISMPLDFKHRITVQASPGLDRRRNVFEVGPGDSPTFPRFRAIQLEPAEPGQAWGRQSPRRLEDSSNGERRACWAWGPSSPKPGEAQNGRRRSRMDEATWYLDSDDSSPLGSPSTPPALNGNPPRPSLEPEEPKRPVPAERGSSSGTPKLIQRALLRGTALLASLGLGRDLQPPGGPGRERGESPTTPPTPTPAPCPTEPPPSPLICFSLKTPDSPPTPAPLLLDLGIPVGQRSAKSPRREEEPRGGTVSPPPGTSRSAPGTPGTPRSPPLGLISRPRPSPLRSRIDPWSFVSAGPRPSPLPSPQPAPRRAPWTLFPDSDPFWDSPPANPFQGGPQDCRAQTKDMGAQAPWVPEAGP

inhibition [1] | inhibition [2] | inhibition [3] | inhibition [4] | inhibition [5] | inhibition [6] | inhibition [7] | inhibition [8] | SMILES | inhibition at 0.1 µM (HL-60)
< 35% | < 35% | < 35% | < 35% | < 35% | < 35% | < 35% | < 35% | C[C@H]1COc2c(NCCCc3ccccn3)c(F)c(N)c3c(=O)c(C#N)cn1c23 | < 35%
< 35% | < 35% | < 35% | < 35% | < 35% | < 35% | < 35% | < 35% | C[C@H]1COc2c(NCCCn3cccn3)c(F)c(N)c3c(=O)c(C(=O)O)cn1c23 | < 35%
< 35% | < 35% | < 35% | < 35% | < 35% | < 35% | < 35% | < 35% | C[C@H]1COc2c(NCCCc3ccccn3)c(F)c(N)c3c(=O)c(C(=O)O)cn1c23 | < 35%
< 35% | < 35% | < 35% | < 35% | < 35% | < 35% | < 35% | < 35% | C[C@H]1COc2c(NCCCn3cccn3)c(F)c(N)c3c(=O)c(C#N)cn1c23 | < 35%
